Data: publication PMC4318582, “Chemotherapy of Second Stage Human African Trypanosomiasis: Comparison between the Parenteral Diamidine DB829 and Its Oral Prodrug DB868 in Vervet Monkeys” (PLoS Neglected Tropical Diseases, 2015)
“And” between values parts separate entries of the source, which are not always exact repeats. Equal entries are not always repeated. Where two headings read alike, the source gives them in different places.

Test: Plasma pharmacokinetics in infected vervet monkeys (HPLC-MS/MS)
Assay type: in vivo, vervet monkey
Conditions: for AUClast: last measurable concentration varied (112–490 days); for CL/F: read-out: Cl/F (apparent clearance) (converted)
From the text: Parasitaemia post-infection was monitored daily, using ear-prick capillary blood, through the completion of DB868 and DB829 treatment. Following the last drug dose (LDD), blood and CSF samples were examined for trypanosomes at 1, 4, 7, and 14 days to determine the end of treatment (EoT) response; monkeys which were positive for trypanosomes in either blood or CSF at the end of this 14-day period were classified as treatment failures/not cured while those that were free of trypanosomes were classified as provisionally cured. After the 14-day EoT evaluations, parasitaemia examinations were continued twice weekly to ≥ 300 days post-LDD as described previously. Additionally, physical examinations and haematological assessments were carried out once weekly up to 28 days post-LDD, once every two weeks between 28 and 100 days post-LDD, and monthly thereafter until the end of the study as described previously. At 300 days post-LDD, monkeys were considered cured if they remained normal clinically and parasite-free in the blood and CSF. Pharmacokinetic outcomes were monitored for a minimum of 60 days post-LDD as described previously. To facilitate the collection of blood and CSF for these assessments, the monkeys were anaesthetised with an IM injection of ketamine HCl (10–15 mg/kg) and diazepam (0.5 mg/kg). Monkeys that relapsed, characterized by trypanosome recrudescence in the blood or CSF, were rescue-treated with melarsoprol. Melarsoprol (Mel B), supplied by the World Health Organization as a 3.6% (w/v) solution in propylene glycol, was administered intravenously at 3.6 mg/kg/day for 4 consecutive days.
Plasma samples were processed for quantification of DB868 and DB829 by high performance liquid chromatography-tandem mass spectrometry (HPLC-MS/MS) as described previously. CSF samples were processed in a manner similar to that of plasma samples.
Clinical and haematological data were analysed using Statview for Windows Version 5.0.1 (1995–1998; SAS Institute Inc., Cary, NC, USA). Repeated measures ANOVA, with Fisher’s PLSD post hoc test, was used to test the effect of trypanosome infection on haematologic parameters in comparison with respective baseline values (α = 0.05). In addition, the effects of IM DB829 and oral DB868 on these haematologic parameters in monkeys with confirmed second stage HAT were tested. Pharmacokinetic outcomes were recovered using traditional non-compartmental methods using Phoenix WinNonlin (version 6.2; Pharsight, Mountain View, CA, USA).

[1] = IM DB829 consecutive-day dosing
[2] = after 5th IM dose, Group 1 = 5 mg/kg × 5 consecutive days, 5 mg/kg
[3] = after 5th IM dose, Group 3 = 2.5 mg/kg × 5 consecutive days, 2.5 mg/kg

In the case of `N=C(N)c1ccc(-c2ccc(-c3ccc(C(=N)N)cn3)o2)nc1` [DB829, 2,5-bis(5-amidino-2-pyridyl)furan], the “geometric mean plasma Cmax of DB829 relative to that after oral DB868 at 20 mg/kg/day” value (IM DB829 2.5 mg/kg/day) is reported as 10 times, the “AUC, alternate-day relative to consecutive-day dosing regimen” value (IM DB829 5 mg/kg/day) is reported as 5 fold and the “geometric mean plasma Cmax of DB829 relative to that after oral DB868 at 20 mg/kg/day” value (IM DB829 5 mg/kg/day, after last of 5 doses) is reported as 25 fold. For the same molecule, the “terminal half-life, alternate-day relative to consecutive-day dosing regimen” value (IM DB829 5 mg/kg/day, 5 mg/kg/day) was 4 fold and 5 fold, the “median plasma Tmax” value (IM DB829 2.5 and 5 mg/kg/day consecutive-day dose groups) was 0.04 days and the “geometric mean AUC, 5 mg/kg/day group relative to 2.5 mg/kg/day group” value [1] was 2.1 fold. The “geometric mean Cmax, 5 mg/kg/day group relative to 2.5 mg/kg/day group” value [1] was 2.7 fold, the “AUC0-∞” value [2] was 13000 nmol·days/L and 15000 nmol·days/L and the “Cl/F (apparent clearance)” value [2] was 0.528 mL/min/kg. The “t½ (terminal half-life)” value [2] was 44 days, the AUClast [2] was 12000 nmol·days/L and 13000 nmol·days/L and the “t½ (terminal half-life)” value (after 5th IM dose, Group 2 = 5 mg/kg × 5 alternating days, 5 mg/kg) was 180 days. For the same molecule, the “AUC0-∞” value [3] was 8300 nmol·days/L and 5300 nmol·days/L, the “Cl/F (apparent clearance)” value [3] was 0.694 mL/min/kg and the “t½ (terminal half-life)” value [3] was 42 days. The AUClast [3] was 7700 nmol·days/L and 4500 nmol·days/L, the “geometric mean AUC0–63 of DB829 relative to single monkey of 3 mg/kg/day group” value (after oral DB868 10 mg/kg/day) was “approximately 3 fold” and the “geometric mean AUC0–63 of DB829 relative to single monkey of 3 mg/kg/day group” value (after oral DB868 20 mg/kg/day) was roughly 4 fold. The CL/F (monkey, in vivo, im, 2.5 mg/kg, after 5th IM dose, Group 3 = 2.5 mg/kg × 5 consecutive days) was 0.465 mL/min/kg, the half-life (monkey, in vivo, im, 2.5 mg/kg, after 5th IM dose, Group 3 = 2.5 mg/kg × 5 consecutive days, read-out: t½ (terminal half-life) (converted)) was 33 days and the Cmax (monkey, in vivo, im, 2.5 mg/kg, plasma DB829 after 5th IM dose, Group 3 = 2.5 mg/kg × 5 consecutive days, read-out: Cmax) was 4200 nM. The Tmax (monkey, in vivo, im, 2.5 mg/kg, plasma DB829 after 5th IM dose, Group 3 = 2.5 mg/kg × 5 consecutive days, read-out: Tmax (converted)) was 0.04 days, the CL/F (monkey, in vivo, im, 5 mg/kg, after 5th IM dose, Group 1 = 5 mg/kg × 5 consecutive days) was 0.59 mL/min/kg and the half-life (monkey, in vivo, im, 5 mg/kg, after 5th IM dose, Group 1 = 5 mg/kg × 5 consecutive days, read-out: t½ (terminal half-life) (converted)) was 34 days. For the same molecule, the half-life (monkey, in vivo, im, 5 mg/kg, after 5th IM dose, Group 2 = 5 mg/kg × 5 alternating days, read-out: t½ (terminal half-life) (converted)) was 130 days, the Cmax (monkey, in vivo, im, 5 mg/kg, plasma DB829 after 5th IM dose, Group 1 = 5 mg/kg × 5 consecutive days, read-out: Cmax) was 12000 nM and the Tmax (monkey, in vivo, im, 5 mg/kg, plasma DB829 after 5th IM dose, Group 1 = 5 mg/kg × 5 consecutive days, read-out: Tmax (converted)) was 0.04 days. The Cmax (monkey, in vivo, im, 5 mg/kg, plasma DB829 after 5th IM dose, Group 2 = 5 mg/kg × 5 alternating days, read-out: Cmax) was 16000 nM, the Tmax (monkey, in vivo, im, 5 mg/kg, plasma DB829 after 5th IM dose, Group 2 = 5 mg/kg × 5 alternating days, read-out: Tmax (converted)) was 0.04 days and the half-life (monkey, in vivo, im, IM DB829 consecutive-day dosing regimens, read-out: geometric mean (range) terminal half-life (t½) (converted)) was 38 days. It also gave a Cmax (monkey, in vivo, po, 3 mg/kg/day, after oral DB868 3 mg/kg/day, read-out: Geometric mean Cmax (range) of DB829) of 85 nM, a Cmax (monkey, in vivo, po, 3 mg/kg/day, plasma DB829 after the 10th oral dose of DB868, 3 mg/kg × 10 days, read-out: Cmax) of 60 nM and a Cmax (monkey, in vivo, po, 10 mg/kg/day, after oral DB868 10 mg/kg/day, read-out: Geometric mean Cmax (range) of DB829) of 270 nM. For the same molecule, the Cmax (monkey, in vivo, po, 10 mg/kg/day, plasma DB829 after the 10th oral dose of DB868, 10 mg/kg × 10 days, read-out: Cmax) was 410 nM, the half-life (monkey, in vivo, po, 10 mg/kg/day, plasma DB829 after the 10th oral dose of DB868, 10 mg/kg × 10 days, read-out: t½ (converted)) was 120 days and the Cmax (monkey, in vivo, po, 20 mg/kg/day, after oral DB868 20 mg/kg/day, read-out: Geometric mean Cmax (range) of DB829) was 530 nM. It also gave a Cmax (monkey, in vivo, po, 20 mg/kg/day, plasma DB829 after the 10th oral dose of DB868, 20 mg/kg × 10 days, read-out: Cmax) of 460 nM, a Tmax (monkey, in vivo, po, after oral DB868, three treatment groups, read-out: Median plasma Tmax for DB829 (converted)) of 0.33 days and a Tmax (monkey, in vivo, po, after oral DB868, three treatment groups, read-out: range of plasma Tmax for DB829) of 0.04 to 2 days. The half-life (monkey, in vivo, po, given IM or orally as DB868, range over monkeys, read-out: half-life for DB829) was 33 to 180 days, the Cmax (plasma DB829 after 5th IM dose, Group 1 = 5 mg/kg × 5 consecutive days, 5 mg/kg, read-out: Cmax) was 15000 nM and the Cmax (plasma DB829 after 5th IM dose, Group 2 = 5 mg/kg × 5 alternating days, 5 mg/kg, read-out: Cmax) was 8900 nM. The Cmax (plasma DB829 after 5th IM dose, Group 3 = 2.5 mg/kg × 5 consecutive days, 2.5 mg/kg, read-out: Cmax) was 5900 nM, the Tmax (plasma DB829 after the 10th oral dose of DB868, 3 mg/kg × 10 days) was 0.33 days and the “AUC0–63” value (plasma DB829 after the 10th oral dose of DB868, 3 mg/kg × 10 days, 0 to 63 days) was 1800 nmol·days/L. The Cmax (plasma DB829 after the 10th oral dose of DB868, 3 mg/kg × 10 days, read-out: Cmax) was 110 nM, the Cmax (plasma DB829 after the 10th oral dose of DB868, 10 mg/kg × 10 days, read-out: Cmax) was 340 nM and the Cmax (plasma DB829 after the 10th oral dose of DB868, 20 mg/kg × 10 days, read-out: Cmax) was 630 nM and 500 nM.
